Laboratory results reported in paper PMC10726357, “New Genetically Engineered Derivatives of Antibacterial Darobactins Underpin Their Potential for Antibiotic Development” (Journal of Medicinal Chemistry, 2023).
In brackets after ≈: the same amount, converted by molar mass. Where two headings read alike, the source gives them in different places. Where no end group is shown, it is not given here.

What was measured:
[1] = system: A. baumannii DSM-30008; type: cell-based, Acinetobacter baumannii
Method: (§1) The antibacterial activity of novel darobactins was determined by the evaluation of the minimum inhibitory concentration (MIC) as previously described for crude extracts and for pure darobactin analogues.[12]

[2] = system: K. pneumoniae DSM-30104; type: cell-based, Klebsiella pneumoniae
Method: as §1

[3] = system: P. aeruginosa PA01; type: cell-based, Pseudomonas aeruginosa
Method: as §1

[4] = system: E. coli ATCC25922; type: cell-based, Escherichia coli
Method: as §1

[5] = target: T1, EcBamA (E. coli BamA barrel domain) (Escherichia coli, UniProt P0A940, C690S/C700S); assay: Microscale thermophoresis (MST) KD determination; type: binding
T1 construct: The E. coli BamA barrel domain (BamA-β) (residues 421–810, C690S, C700S); made in house
Method: As an alternative to the previously published methods using isothermal titration calorimetry (ITC), we established a KD determination assay using microscale thermophoresis (MST) to enable higher throughput.
Microscale thermophoresis (MST) (serial no. 201709-BR-N024, Monolith NT.115 Micro Scale Thermophoresis, NanoTemper Technologies GmbH) was performed according to the standard protocol from the manufacturer NanoTemper Technologies GmbH using a Monolith His-Tag Labeling Kit RED-tris-NTA second-generation kit. The buffer used was HEPES (50 mM), pH 7.6, MgCl2 (5 mM), and Tween (0.05%). […] A 1:1 dilution of the ligand over 16 samples was performed using a stock of ligand (in water) diluted in HEPES buffer. Nonhydrophobic capillary tubes were used. A pretest to check for the labeling and compound fluorescence was performed for every sample followed by a binding affinity (KD) determination. Each sample was measured after 15 min of incubation at RT and analyzed in MO Control version 1.6.

[6] = system: HepG2
[7] = system: Acinetobacter baumannii DSM-30008; assay: Antibacterial activity screening of darobactin-containing crude extracts; type: cell-based; design: key: two-fold serial dilution from 1:15 (A) (concentration factor: 6.67×); low activity A B C D E F G H high activity; low activity A B C D E F G H high activity; low activity A B C D E F G H high activity; low activity A B C D E F G H high activity; low activity A B C D E F G H high activity; low activity A B C D E F G H high activity; to 1:3,840 (H) (concentration factor: 0.05×); conditions: derivative-containing crude extract, two-fold serial dilution
Method: (§2) The extracts of production clones for all derivatives were prepared and tested for their antibacterial activity against E. coli ATCC 25922, P. aeruginosa PA01, K. pneumoniae DSM-30104, and A. baumannii DSM-30008.
as §1

[8] = system: Escherichia coli ATCC 25922; assay: as above; type: cell-based; design: key: two-fold serial dilution from 1:15 (A) (concentration factor: 6.67×); low activity A B C D E F G H high activity; low activity A B C D E F G H high activity; low activity A B C D E F G H high activity; low activity A B C D E F G H high activity; low activity A B C D E F G H high activity; low activity A B C D E F G H high activity; to 1:3,840 (H) (concentration factor: 0.05×); conditions: derivative-containing crude extract, two-fold serial dilution
Method: as §2, §1

[9] = system: Klebsiella pneumoniae DSM-30104; assay: as above; type: cell-based; design: key: two-fold serial dilution from 1:15 (A) (concentration factor: 6.67×); low activity A B C D E F G H high activity; low activity A B C D E F G H high activity; low activity A B C D E F G H high activity; low activity A B C D E F G H high activity; low activity A B C D E F G H high activity; low activity A B C D E F G H high activity; to 1:3,840 (H) (concentration factor: 0.05×); conditions: derivative-containing crude extract, two-fold serial dilution
Method: as §2, §1

[10] = system: P. aeruginosa PA01; assay: as above; type: cell-based, Pseudomonas aeruginosa; design: key: two-fold serial dilution from 1:15 (A) (concentration factor: 6.67×); low activity A B C D E F G H high activity; low activity A B C D E F G H high activity; low activity A B C D E F G H high activity; low activity A B C D E F G H high activity; low activity A B C D E F G H high activity; low activity A B C D E F G H high activity; to 1:3,840 (H) (concentration factor: 0.05×); conditions: derivative-containing crude extract, two-fold serial dilution
Method: as §2, §1

| Compound | antimicrobial activity of crude extract: highest dilution factor with full growth inhibition, A. baumannii DSM-30008 [7] | antimicrobial activity of crude extract: highest dilution factor with full growth inhibition, E. coli ATCC25922 [8] | antimicrobial activity of crude extract: highest dilution factor with full growth inhibition, K. pneumoniae DSM-30104 [9] | antimicrobial activity of crude extract: highest dilution factor with full growth inhibition, P. aeruginosa PA01 [10] | also measured |
| --- | --- | --- | --- | --- | --- |
| C[C@@H](O)[C@@H]1NC(=O)[C@H]2NC(=O)[C@H](CC(N)=O)NC(=O)[C@@H](N)Cc3c[nH]c4c(cccc34)O[C@@H]2c2c[nH]c3cc(ccc23)[C@H](CCNC(=N)N)[C@@H](C(=O)N[C@@H](CCCNC(=N)N)C(=O)N[C@@H](Cc2c[nH]c3ccccc23)C(=O)O)NC1=O [D39] |  |  |  |  | MIC A. baumannii [DSM-30008] ([1]; DSM-30008): 0.5 to 2 µg/mL; MIC K. pneumoniae [DSM-30104] ([2]; DSM-30104): 4 to 8 µg/mL; MIC P. aeruginosa [PA01] [3]: 2 µg/mL (≈ 1.79 µM); MIC E. coli [ATCC25922] ([4]; ATCC25922): 4 to 8 µg/mL; Kd [5]: 10.9 ± 3.5 µM; IC50 HepG2 [6]: >37 µg/mL |
| C[C@@H](O)[C@@H]1NC(=O)[C@H]2NC(=O)[C@H](CCC(=O)O)NC(=O)[C@@H](N)Cc3c[nH]c4c(cccc34)O[C@@H]2c2c[nH]c3cc(ccc23)[C@H](CCCN)[C@@H](C(=O)N[C@@H](CCCNC(=N)N)C(=O)N[C@@H](Cc2c[nH]c3ccccc23)C(=O)O)NC1=O [D58] |  |  |  |  | MIC A. baumannii [DSM-30008] ([1]; pure compound, n = 2, Table 2): 2 µg/mL (≈ 1.81 µM); MIC K. pneumoniae [DSM-30104] ([2]; pure compound, n = 2, Table 2): 16 µg/mL (≈ 14.5 µM); MIC P. aeruginosa [PA01] ([3]; pure compound, n = 2, Table 2): 8 µg/mL (≈ 7.25 µM); MIC E. coli [ATCC25922] ([4]; pure compound, n = 2, Table 2): 8 µg/mL (≈ 7.25 µM); Kd [5]: 5.1 ± 3.7 µM; IC50 HepG2 ([6]; cytotoxicity, n = 2): > 37 µg/mL |
| C[C@@H](O)[C@@H]1NC(=O)[C@H]2NC(=O)[C@H](CC(=O)O)NC(=O)[C@@H](N)Cc3c[nH]c4c(cccc34)O[C@@H]2c2c[nH]c3cc(ccc23)[C@H](CCCN)[C@@H](C(=O)N[C@@H](CCCNC(=N)N)C(=O)N[C@@H](Cc2c[nH]c3ccccc23)C(=O)O)NC1=O [D60] |  |  |  |  | MIC A. baumannii [DSM-30008] ([1]; DSM-30008): 2 µg/mL (≈ 1.84 µM); MIC K. pneumoniae [DSM-30104] ([2]; DSM-30104): 16 µg/mL (≈ 14.7 µM); MIC P. aeruginosa [PA01] [3]: 4 µg/mL (≈ 3.67 µM); MIC E. coli [ATCC25922] ([4]; ATCC25922): 16 µg/mL (≈ 14.7 µM); IC50 HepG2 [6]: > 37 µg/mL |
| C[C@@H](O)[C@@H]1NC(=O)[C@H]2NC(=O)[C@H](CC(N)=O)NC(=O)[C@@H](N)Cc3c[nH]c4c(cccc34)O[C@@H]2c2c[nH]c3cc(ccc23)[C@H](CCCN)[C@@H](C(=O)N[C@@H](CCC(N)=O)C(=O)N[C@@H](Cc2c[nH]c3ccccc23)C(=O)O)NC1=O [D74] |  |  |  |  | MIC A. baumannii [DSM-30008] ([1]; DSM-30008): 4 µg/mL (≈ 3.77 µM); MIC K. pneumoniae [DSM-30104] ([2]; DSM-30104): 16 µg/mL (≈ 15.1 µM); MIC P. aeruginosa [PA01] [3]: 2 µg/mL (≈ 1.89 µM); MIC E. coli [ATCC25922] ([4]; ATCC25922): 4 µg/mL (≈ 3.77 µM); IC50 HepG2 [6]: > 37 µg/mL |
| D59: novel darobactin derivative, core peptide WKWTKRW (not fully specified (bridges); also: darobactin bicyclic crosslinks) | A | A | A | A |  |
| D62: novel darobactin derivative, core peptide WRWTKRW (not fully specified (bridges); also: darobactin bicyclic crosslinks) | A |  | B |  |  |
| D63: novel darobactin derivative, core peptide WVWTKRW (not fully specified (bridges); also: darobactin bicyclic crosslinks) | C |  | B | A |  |
| D65: novel darobactin derivative, core peptide WSWTKKW (not fully specified (bridges); also: darobactin bicyclic crosslinks) | D | A | A | B |  |
| D66: novel darobactin derivative, core peptide WNWTKCW (not fully specified (bridges); also: darobactin bicyclic crosslinks) | C | A | A | B |  |
| D67: novel darobactin derivative, core peptide WYWTKRW (not fully specified (bridges); also: darobactin bicyclic crosslinks) | E | C | C | D |  |
| D68: novel darobactin derivative, core peptide WLWTKRW (not fully specified (bridges); also: darobactin bicyclic crosslinks) | D | B | B | B |  |
| D70: novel darobactin derivative, core peptide WSWSKRW (also: darobactin bicyclic crosslinks) | E | C | C | D |  |
| D71: novel darobactin derivative, core peptide WEWSKRW (also: darobactin bicyclic crosslinks) | E | C | C | B-C |  |
| D72: novel darobactin derivative, core peptide WKWSKRW (also: darobactin bicyclic crosslinks) | C | C | B | B |  |
| D73: novel darobactin derivative, core peptide WDWSKRW (also: darobactin bicyclic crosslinks) | C | A | A | B |  |
